Reference: patent publication US5451583A, “Substituted benzimidazoles and quinazolines as antihypertensives” (American Home Products Corporation, priority 1994, dated 1995)
Where a name gives a salt, the structure may show the parent alone.

What follows are compounds tested on A II-infused rat (assay: A II-infused rat model (ganglion-blocked), antihypertensive action). Details: 3 mg/kg id (intraduodenal), four hours post-administration.
Format: in vivo
Description: In accordance with their ability to antagonize angiotensin II, the compounds of this invention show antihypertensive action in the following A II-infused rat model. Rats are anesthetized with Dial-Urethane (0.60 mL/kg, ip) and the trachea cannulated with PE 240. Either one femoral artery and both femoral veins or the carotid artery and the corresponding jugular vein are cannulated with PE 50. If the jugular vein is cannulated, two cannulas are placed in the one vein. The initial portion of the duodenum (just distal to the stomach) is cannulated with PE 50 via a small midline incision. Arterial pressure and heart rate are measured from the arterial cannula. Ten to 15 min are allowed following surgery for stabilization of arterial pressure. Ganglion blockade is then produced by intravenous administration of mecamylamine at 3 mg/kg (1 mL/kg of a 3 mg/mL solution). Ganglion blockade causes a fall in arterial pressure of about 50 mmHg. Mecamylamine is given every 90 min throughout the remainder of the experiment. An A II infusion is then begun into the other venous cannula at 0.25 μg/kg/min (at […]). The A II infusion returns arterial pressure to or slightly above the control level. Once arterial pressure has stabilized with the A II infusion, baseline values for mean arterial pressure (MAP) and heart rate are taken. […]

Compound | lowering of A II dependent blood pressure, average [%]
FC(F)(F)c1nc2c(c(NCc3ccc(-c4ccccc4-c4nn[nH]n4)nc3)n1)CCCC2 [Example 9] | 70

The compounds below were run against angiotensin II receptor (assay: rat adrenal receptor binding assay, displacement of radiolabeled (125I) angiotensin II). Details: rat adrenal cortex membranes; 1 nM 125I-A II; 35 min at 25° C.; pH 7.4; read-out: IC50, Inhibition of 125I Angiotensin II Binding.
Description: The high affinity of the compounds for the angiotensin II receptor was established using a rat adrenal receptor binding assay, measuring the displacement of radiolabeled angiotensin II from the receptor, described as follows: Anesthetize male Sprague-Dawley rats (300-400 g body weight) with CO2 and sacrifice by cervical dislocation. Dissect adrenal glands and keep in ice-cold sucrose buffer (0.2M sucrose, 1 mM EDTA, 10 mM Trizma base, pH=7.2). Remove medulla by squashing. Mince the cortex, rinse and homogenize in a chilled ground glass tissue grinder with 15 mL sucrose buffer. Centrifuge at 3000×g for 10 min. (Sorvall RCSC centrifuge, SS34 rotor 6200 rpm). Decant supernatant through gauze. Centrifuge combined supernatant at 12000×g for 13 min. (Beckman ultracentrifuge, 80Ti rotor, 13000 rpm). Centrifuge the supernatant from the previous step at 102000×g for 60 min. (Beckman ultracentrifuge, 80Ti rotor, 38200 rpm). All steps are carried out at 4° C. Resuspend the pellet in 0.5 mL assay buffer (50 mM Tris HCI, 5 mM MgCl2, 0.2% BSA (protease-free), pH=7.4, 25° C.). Store on ice. Determine membrane protein by Lowry or Bradford assay with BSA as standard. The binding assay is performed in triplicate, in 12×75 mm plastic test tubes or in a 96-well plate (final volume of 0.25 mL). Add 140 μL assay buffer. Add 10 μL cold A II (to give final concentrations of 10^-10 -10^-7 M for standard curve and 10^-4 M for nonspecific binding), compounds (e.g., for final concentrations of 25 and 100 μM or 1 μM, 10 nM and 100 nM) in 50% DMSO, or 50% DMSO as a control. Add 50 μL membrane suspension (e.g., 10 μg protein). Preincubate for 30 min at 25° C. Add 50 μL ^125 I-A II which has been prepared as shown below (final concentration=1 nM). Incubate for 35 min at 25° C. Stop the incubation by adding 1 mL ice-cold buffer (assay buffer without BSA). Filter with GF/C filters on cell harvester (filters are presoaked in the assay buffer containing 1% polyethyleneimine). Rinse assay tubes 3× with 5 mL cold buffer (assay buffer without BSA). Cut and deposit the filter discs into test tubes and count on gamma counter for 1 min. Adjust the specific activity of ^125 I-A II purchased from New England Nuclear to 500 μCi/nmole by adding cold A II in water. Calculate the quantities of hot A II and the cold A II needed and make the dilution. Aliquot, seal tight, and store frozen until needed. Calculate the concentration of the total A II (hot+cold) after dilution. On the day of assay, thaw the frozen aliquot and adjust the volume to give a concentration of 5 pmole/mL (or 0.25 pmole/50 μL) with assay buffer (+protease-free BSA). For final concentration of 1 nM ^125 I-A II in the assay, add 50 μL (or 0.25 pmole) per test tube to a final volume of 250 μL. The results of these binding assays are reported as the inhibitory concentration of the test compound necessary to achieve fifty percent displacement of radiolabeled angiotensin II from its receptor (IC50), or the percent displacement of binding of A II at its receptor at 10^-8 M concentration of test compound (% I).

Compound | IC50 [µM]
CCCc1nc2ccccc2n1Cc1ccc(C2=C(C(=O)O)CCC2)cc1 [Example 3, 2-[4-[(2-Propyl-1H-benzimidazol-1-yl)methyl]phenyl]-1-cyclopentene-1-carboxylic Acid] | 20
CCCc1nc2ccccc2n1Cc1ccc(C2CCCC2C(=O)O)cc1 (centres unmarked) [Example 4, 2-[4-[(2-Propyl-1H-benzimidazol-1-yl)methyl]phenyl]cyclopentane-1-carboxylic Acid] | 25
CCCc1nc2ccccc2n1CCN1CCN(c2ccccc2-c2nnn[nH]2)CC1 [Example 5, 2-Propyl-1-[2-[4-[2-(1H-tetrazol-5-yl)phenyl]-1-piperazinyl]ethyl]-1H-benzimidazole Potassium Salt] | 43
CCCc1nc2ccccc2n1CCC1CCN(c2ccccc2-c2nnn[nH]2)CC1 [Example 6, 2-Propyl-1-[2-[1-[2-(1H-tetrazol-5-yl)phenyl]-4-piperidinyl]ethyl]-1H-benzimidazole] | 30
CCCc1nc2c(C)cccc2n1Cc1ccc(-c2ccccc2-c2nnn[nH]2)nc1 [Example 8, 4-Methyl-2-propyl-1-[[2-[2-(1H-tetrazol-5-yl)phenyl]-5-pyridinyl]methyl]-1H-benzimidazole] | 15
FC(F)(F)c1nc2c(c(NCc3ccc(-c4ccccc4-c4nn[nH]n4)nc3)n1)CCCC2 [Example 9] | 4.5
CCCc1nc2ccccc2n1Cc1ccc(-c2ncccc2C(=O)O)cc1 [Example 10, 2-[4-[(2-Propyl-1H-benzimidazol-1-yl)methyl]phenyl]-3-pyridinecarboxylic Acid] | 200

The remaining lines, values ahead:

IC50 [µM] | Compound
200 | CCCc1nc2ccccc2n1CC1=C(c2ccccc2-c2nnn[nH]2)CCC1 [Example 1, 2-Propyl-1-[[2-[2-(1H-tetrazol-5-yl)phenyl]-1-cyclopentenyl]methyl]-1H-benzimidazole]
73 | CCCc1nc2ccccc2n1CC1=C(c2cccc(-c3nnn[nH]3)c2)CCC1 [Example 2, 2-Propyl-1-[[2-[3-(1H-tetrazol-5-yl)phenyl]-1-cyclopentenyl]methyl]1H-benzimidazole]
24 | CCCc1nc2ccccc2n1Cc1ccc(-c2ccccc2-c2nnn[nH]2)nc1 [Example 7, 2-Propyl-1-[[2-[2-(1H-tetrazol-5-yl)phenyl]-5-pyridinyl]methyl]-1H-benzimidazole]
